Experimental data as given in patent US5776935A, “Pyrido-phtalazin diones and their use against neurological disorders associated with excitotoxicity and malfunctioning of glutamatergic neurotransmission” (Merz & Co. GmbH & Co., priority 1996, dated 1998).
Like-named read-outs stand apart in the source and are kept apart here.

Legend:
[1] = biological target: T1, glycineB site of the NMDA receptor (rat cortical membranes) (Rattus norvegicus, UniProt P35439); experiment: [3H]5,7-DCKA binding assay; details: 10 nM [3H]5,7-DCKA
T1 construct: The cortex was dissected and homogenised in 20 volumes of ice-cold 0.32M sucrose; from tissue; host or cells: brain cortex membranes of male Sprague-Dawley rats
Description: Tissue preparation was performed according to Foster and Wong (1987). Male Sprague-Dawley rats (200-250g) were decapitated and their brains were removed rapidly. The cortex was dissected and homogenised in 20 volumes of ice-cold 0.32M sucrose using a glass-Teflon homogenizer. The homogenate was centrifuged at 1000×g for 10 min. The pellet was discarded and the supernatant centrifuged at 20,000×g for 20 min. The resulting pellet was resuspended in 20 volumes of distilled water and centrifuged for 20 min at 8000×g. Then the supernatant and the buffy coat were centrifuged three times (48,000× g for 20 min) in the presence of 5 mM Tris-HCl, pH 7.4. All centrifugation steps were carried out at 4° C. After resuspension in 5 volumes of 5 mM Tris-HCl, pH 7.4 the membrane suspension was frozen rapidly at -80° C. until the day of assay. On the day of assay the membranes were thawed and washed four times by resuspension in 5 mM Tris-HCl, pH 7.4 and centrifugation at 48,000× g for 20 min. The final pellet was suspended in assay buffer.
The amount of protein in the final membrane preparation was determined according to the method of Lowry (1951) with some modifications (Hartfree, 1972). 50 μl of Protein samples (in triplicates) were diluted to 1 ml with distilled water and treated with 0.9 ml of a solution containing 2 g potassium sodium tartrate and 10 g Na2 CO3 in 500 ml 1N NaOH and 500ml water. Blank and standard (with bovine serum albumin) were set up in the same way. The tubes were placed in a water bath at 50° C. for 10 min. and cooled at room temperature. 100 μl of a solution containing 2 g potassium sodium tartrate and 1 g CuSO4 x 5 H2 O in 90 ml water and 10 ml 1N NaOH were added. The samples were left at room temperature for at least 10 min., then 3 ml of Folin-Ciocalteu reagent (1 ml of reagent diluted with 15 ml water) was added rapidly during mixing. The tubes were again heated at 50° C. for 10 min. and cooled to room temperature. Absorbencies were then read in 1 cm cuvets at 650 nm. The final protein concentration used for our studies was between 100 and 250 μg/ml.
Incubation in both binding assays was terminated using a Millipore filter system. The samples, all in triplicate, were rinsed three times with 2.5 ml ice cold assay buffer over glass fibre filters obtained from Schleicher & Schuell under a constant vacuum. Following separation and rinse the filters were placed into scintillation liquid (5 ml; Ultima Gold) and radioactivity retained on the filters was determined by using conventional liquid scintillation counter (Hewlett Packard, Liquid Scintillation Analyser). `Total binding` was the absolute amount of radioligand bound in the absence of any additives whereas `non-specific` binding was determined in the presence of a high concentration of competitor.
[^3 H]5,7-DCKA binding assay
Experiments were performed according to the methods modified from previous groups (Canton et al., 1991; Yoneda et al., 1993). Membranes were suspended and incubated in 10 mM Tris-HCl, pH 7.4. Incubation time was 45 min at 4° C. Non-specific binding of [^3 H]5,7-DCKA was defined by the addition of unlabeled glycine at 0.1 mM. The stop-solution contained 10 mM Tris-HCl and 10 mM magnesium sulphate, pH 7.4. Filtration was performed as rapidly as possible. Displacement experiments were performed with a fixed [^3 H]5,7-DCKA concentration of 10 nM. Test compounds were diluted in water or DMSO and added in at least 5 different concentrations.

NMDA receptor = biological target: T2, NMDA receptor (Rattus norvegicus, UniProt P35439); experiment: Patch clamp, inward currents to NMDA in cultured superior colliculus neurones; format: cell-based; details: for IC50 / IC50 against inward currents to NMDA: NMDA 200 μM; for voltage-dependence of effect: NMDA currents; for Kb: read-out: Kb (Cheng-Prusoff relationship)
T2 construct: endogenous in cells
Description: Cells were mechanically dissociated in 0.05% DNAase / 0.3% ovomucoid (Sigma) following a 15 minute pre-incubation with 0.66% trypsin / 0.1% DNAase (Sigma). The dissociated cells were then centrifuged at 18G for 10 minutes, resuspended in minimum essential medium (Gibco) and plated at a density of 200,000 cells cm onto poly-L-lysine (Sigma)-precoated plastic petri dishes (Falcon). The cells were nourished with NaHCO3 /HEPES-buffered minimum essential medium supplemented with 5% foetal calf serum and 5% horse serum (Gibco) and incubated at 37° C. with 5%CO2 at 95% humidity. The medium was exchanged completely following inhibition of further glial mitosis with cytosine-β-D-arabinofuranoside (20 μM Sigma) after about 7 days in vitro. Thereafter the medium was exchanged partially twice weekly. […] Moreover, the relatively small neurones (soma 15-20 μm .phi.) are ideally suited to minimise problems of buffered diffusion for concentration clamp experiments.
Patch clamp recordings were made from these neurones with polished glass electrodes (4-6 m.OMEGA.) in the whole cell mode at room temperature (20°-22° C.) with the aid of an EPC-7 amplifier (List). Test substances were applied by switching channels of a custom made fast superfusion system with a common outflow (10-20 ms exchange times). The contents of the intracellular solution were as follows (mM): CsCl (120), TEACl (20), EGTA (10), MgCl2 (1), CaCl2 (0.2), glucose (10), ATP (2), cAMP (0.25); pH was adjusted to 7.3 with CsOH or HCl. The extracellular solutions had the following basic composition (mM): NaCl (140), KCl (3), CaCl2 (0.2), glucose (10), HEPES (10), sucrose (4.5), tetrodotoxin (TTX 3*10-4). For most experiments glycine (1 μM) was present in all solutions. Experiments to test the glycine-dependence of the tricyclic "pyrido-phtalazin diones" were performed in the continuous presence of increasing concentrations of glycine (1-10 μM).
This effect was mediated at the glycineB site as evidenced by the parallel shift in the concentration-response curves in the presence of increasing glycine concentrations. Thus the Kbs of Mrz 2/502 as assessed according to the Cheng-Prusoff relationship were similar in glycine 1, 3 and 10 μM (80, 124 and 118 nM respectively). […] Choline derivatives had similar potencies to the free acids in vitro (Table14b).

[2] = glycine 1 μM, peak currents, read-out: Peak NMDA IC50
[3] = glycine 1 μM, plateau (steady-state) currents, read-out: Plateau NMDA IC50

Structure (SMILES)	IC50 [1] [nM]	IC50 (NMDA receptor; [2]) [nM]	IC50 (NMDA receptor; [3]) [nM]	voltage-dependence of effect (NMDA receptor)	IC50 against inward currents to NMDA (NMDA receptor)	Kb (NMDA receptor; glycine 1 μM) [nM]	Kb (NMDA receptor; glycine 3 μM) [nM]	Kb (NMDA receptor; glycine 10 μM) [nM]
O=c1[nH]nc(O)c2c1cc1cc(F)ccc1[n+]2[O-] [Mrz 2/516, 8-fluoro-4-hydroxy-1-oxo-1,2-dihydropyridazino[4,5-b]-quinoline 5-oxide]	300	6300	1600	–	–	–	–	–
O=c1[nH][nH]c(=O)c2nc3ccc(Br)cc3cc12 [Mrz 2/503]	250	1700	600	–	–	–	–	–
O=c1[nH][nH]c(=O)c2nc3cc(Cl)c(Cl)cc3cc12 [Mrz 2/515]	530	3700	900	–	–	–	–	–
O=c1[nH][nH]c(=O)c2nc3ccc(Cl)cc3cc12 [Mrz 2/501]	120	2300	700	not voltage-dependent	–	–	–	–
O=c1[nH]nc(O)c2c1cc1cc(Cl)ccc1[n+]2[O-] [Mrz 2/502, 8-chloro-4-hydroxy-1-oxo-1,2-dihydropyridazino[4,5-b]-quinoline 5-oxide]	20	800	300	not voltage-dependent	most potent	80	124	118
O=c1[nH]nc(O)c2c1cc1cc(Br)ccc1[n+]2[O-] [Mrz 2/514, 8-bromo-4-hydroxy-1-oxo-1,2-dihydropyridazino[4,5-b]-quinoline 5-oxide]	10	500	200	–	most potent	–	–	–
O=c1[nH][nH]c(=O)c2nc3ccc(F)cc3cc12 [Mrz 2/519]	1100	18000	5800	–	–	–	–	–
